Measured values as given in US11360102B2, “Biomarkers for the early detection of Parkinson's disease” (BOSTON MEDICAL CENTER CORPORATION, priority 2015, dated 2022).
Read-outs that look alike come from different tables or passages of the source.

Legend:
[1] = tested on: PLA2g6(L)-dependent Orai1-mediated SOCE; test: TG-induced store-operated Ca2+ entry (SOCE), Fura-2 imaging in human primary skin fibroblasts; format: cell-based; settings: Skin fibroblast, 10 μM of DES, hPSF, read-out: inhibition of TG-induced Ca^2+ influx
Experimental: Intracellular Ca^2+ studies were performed using standard Fura-2 imaging technique. Briefly, the cells were loaded with Fura-2/AM (5 μM) (Invitrogen) and cytosolic Ca^2+ (using F340/F380 ratio) was recorded simultaneously in individual cells. Representative traces in the figures show average (±SD) responses from up to 20 cells recorded simultaneously. Ca^2+ changes are shown by ΔRatio (ΔF340/F380), which is the difference between the basal and peak values of Ca^2+ responses. Summary bar graphs show the average (±SE) from 3 independent experiments for each condition; the total number of cells in each experimental group is identified on the graphs.
SOCE was measured in response to extracellular application of 2-2.5 mM Ca^2+ in the presence of TG. Concentration and time of acute TG treatment was titrated for each cell type to ensure >90% loss of Ca^2+ from TG-sensitive stores at the time of Ca^2+ addition. […] To inhibit PLA2g6 activity, (S)-BEL (S-bromoenol lactone, Cayman, USA) was applied (10-50 μM for 20 min in serum-free medium at 37° C.) to the cells after their loading with Fura-2/AM, and was washed away before the start of experiment.

PLA2g6 ex2^KO mice = test: L-DOPA challenge test, balance beam test; format: in vivo, mouse
Experimental: The balance beam test (ref 72, 73) was used to assess the ability of ageing ex2^KO and WT mice to maintain balance while walking along a narrow (2 cm) beam placed 20 cm above a soft mattress. Each mouse was placed on a beam for 2 minutes, and its movement was recorded by video camera. The total travel distance, the number of missteps (paw faults, or slips) during travel, and the number of falls off the beam were analyzed for each mouse, and data summarized for each group as mean±SE. The numbers of animals used for each group are identified on the graphs. L-DOPA challenge test (ref 3) was performed on three age groups (12, 16 and 20 months old) ex2^KO male mice with motor deficits. Control balance beam test was performed in the morning a day before L-3,4-dihydroxyphenylalanine (L-DOPA) challenge. In the morning of the following day, all mice received a single dose of L-DOPA (5, 10 or 25 mg/kg, Sigma) via peritoneal injection. Twenty minutes before L-DOPA administration, mice were given 6 mg/kg of benserazide (Sigma) to inhibit peripheral DOPA decarboxylase. The balance beam test was done 1 h after L-DOPA injection, as described above. Video-recorded data for each mouse were analyzed later, and summarized for each group as mean±SE. The numbers of animals used for each age group are identified next to the graph.

PLA2g6 = PLA2g6 activity, modified PLA2 assay kit, fibroblast homogenates; format: biochemical, human; settings: S-BEL 25 μM for 10 min; hPSF from control, idPD and fPD^R747W patients
Experimental: A modified PLA2 assay kit (Cayman for MEFs, and AbCam for hPSF) was used as previously described^21,26. Briefly, each sample of live hPSF or MEF cells was homogenized using a cold lysis buffer (10 mM Tris-HCl, pH 7.0, 300 mM sucrose, 0.5% Triton X-100). To identify specific activity of Ca^2+-independent PLA2g6, the assay buffers were modified to contain no Ca^2+. To assess catalytic activity of PLA2g6, the cells were homogenized and treated with 10 mM EGTA for 10 min, which is known to directly displace inhibitory calmodulin, and fully activate PLA2g6. For analysis of PLA2g6 activation by store depletion, live cells were pretreated with TG (5 μM for 10 min) before homogenization, and homogenates were not treated with 10 mM EGTA. The specificity of PLA2g6 activity in both cases was confirmed by its inhibition with S-BEL (25 μM for 10 min), a chiral-specific suicidal substrate^38 that discriminates PLA2g6 from all other phospholipases. […] The reaction was stopped and the generation of free thiols was visualized by addition of DTNB for 5 min: the absorbance was determined at 405 nm using a standard microplate reader. […]

MEF cells = test: LC3^mCherry/eGFP autophagic flow, live cell imaging in MEFs; format: cell-based, mouse; settings: WT MEFs; prolonged TG treatment, 10 nM for 24 hours
Experimental: Transfection of MEFs was performed using the Amaxa Nucleofector™ system (Lonza, Allendale, N.J., USA). Briefly, the cells were plated in a 6-well plate at a density of 200,000/well. After 24h the cells from each well were collected, centrifuged, re-suspended in 100 μl of electroporation solution (Mirus Bio, Madison, Wis., USA), mixed with 2 μg of the recombinant plasmid DNA and transfected using the T020 program. After electroporation, the cells were plated in 2 ml of warm DMEM containing 10% FBS and 1% penicillin/streptomycin, and grown for 24-48 hours, as specified. Transfection efficiency (verified by expression of GFP or LC3^mCherry/eGFP) was >70%.
Live cell imaging was done using Nikon Ti inverted fluorescence microscope equipped with a Perfect Focus system and environmental chamber (InVivo Scientific). Live cells transfected with LC3^mCherry/eGFP (alone, or in combination with PLA2g6, or its mutants) were imaged in glass-bottom dishes in culture medium at 37° C. and 5% CO2. Images of individual cells were taken using a 60×/1.4 Plan-Apochromat oil immersion objective (Nikon) and filter sets for GFP (ex: 465-496, em: 515-555) and Texas Red (ex: 540-580, em: 600-660). Images of representative cells were analyzed using ImageJ (Wayne Rasband, NIH) software. […]

CC/C(=C(/CC)c1ccc(O)cc1)c1ccc(O)cc1 [DES, diethylstilbestrol]
inhibition at 10 µM ([1]; control group): 80 ± 1%
inhibition at 10 µM ([1]; idPD group): 82 ± 4%

N[C@@H](Cc1ccc(O)c(O)c1)C(=O)O [L-DOPA, L-3,4-dihydroxyphenylalanine]
reduction in the number of missteps (balance beam performance) (PLA2g6 ex2^KO mice; 5 mg/kg body weight L-DOPA, peritoneal injection, test 1 h after, 12-month old ex2^KO animals): 60%
motor coordination of ex2^KO animals after L-DOPA (PLA2g6 ex2^KO mice; 5, 10 or 25 mg/kg, 12, 16 and 20 months old ex2^KO mice): dramatically improved motor coordination

O=C1O/C(=C/Br)CC[C@H]1c1cccc2ccccc12 [S-BEL, S-bromoenol lactone]
effect on PLA2g6 activity (catalytic and TG-induced) (PLA2g6): inhibition

C/C=C(/C)C(=O)O[C@H]1C(C)=C2[C@H]([C@@H]1OC(=O)CCCCCCC)[C@@](C)(OC(C)=O)C[C@H](OC(=O)CCC)[C@@]1(O)[C@H]2OC(=O)[C@@]1(C)O [TG, thapsigargin]
autophagic flow (LC3^mCherry/eGFP) (MEF cells): Autophagic arrest
